Results reported in PubChem BioAssay AID624404 (Broad Institute, 2012).
Records with an inconclusive call do not appear.

tested on: D54 LucT luciferase reporter counterscreen, luminescence, 24 h; assay: luciferase activators in glycosylation-insensitive reporter cells, dose response, counter-screen for N-linked glycosylation inhibitor project, D54 LucT cells, luminescence, cherry pick (AID 624404)

Which AC35 does the source give for `COc1ccccc1-c1csc(C(NC(C)=O)c2cccc(F)c2)n1` (stereo not drawn) here?
The AC35 was 0.59 µM.

`CC(=O)c1ccc(OCC(O)CN2CCN(CCN3C(=O)c4cccc5cccc(c45)C3=O)CC2)cc1` (stereo not drawn) was tested. Which AC35 did it give?
The AC35 was 4.42 µM.

Which AC35 does the source give for `CC(Nc1nc(-c2ccccc2O)nc2ccccc12)c1ccccc1` (stereo not drawn) here?
The AC35 was 0.0395 µM.

Which AC35 does the source give for `COc1ccc(/C=C2\SC(=O)N(CCNC(=O)C3=COCCO3)C2=O)cc1` here?
Its AC35 is 0.854 µM.

How did the AC35 turn out when `COc1ccc(C(=O)c2ccc(OC)c(N)c2)cc1N` was run?
The AC35 was 0.827 µM.

With `Cc1ccc(C)n1-c1cccc(NC(=O)c2ccccc2)c1` as the molecule, how does the AC35 read?
Its AC35 is 7.12 µM.

With `O=C(NCCCn1ccnc1)c1cc(-c2ccccc2)on1` as the molecule, how does the AC35 read?
Its AC35 is 1.48 µM.

With `COc1cc(-c2coc3c(C(=O)NCc4ccc(OC)c(OC)c4)cccc23)ccc1O` as the molecule, how does the AC35 read?
Its AC35 is 2.8 µM.

With `CCN(CCCNC(=O)COc1cc(=O)n(CC)c2ccccc12)Cc1ccccc1` as the molecule, how does the AC35 read?
Its AC35 is 0.517 µM.

How did the AC35 turn out when `O=C(COc1ccccc1CNCc1ccccc1)Nc1ccccc1` was run?
Its AC35 is 0.89 µM.

How did the AC35 turn out when `Cc1ccc(S(=O)(=O)c2cc3c(=O)n4ccccc4nc3n(CCc3ccccc3)c2=N)cc1` was run?
The AC35 was 0.0759 µM.

Which AC35 does the source give for `CC1c2cc3c(cc2CCN1C(=O)c1ccc(Br)cc1)OCCCO3` (stereo not drawn) here?
The AC35 was 0.172 µM.

`OCCCNc1c2ccccc2nc2ccccc12` was tested. Which AC35 did it give?
The AC35 was 4.9 µM.

How did the AC35 turn out when `COc1ccc(CNCC(=O)Nc2ccccc2-n2cccc2)cc1` was run?
Its AC35 is 0.0629 µM.

For `COC(=O)c1cn(C(=O)c2cccc3ccccc23)c2ccccc12`, which AC35 is on record?
Its AC35 is 0.284 µM.

How did the AC35 turn out when `CCOC(=O)c1[nH]c(C)c(C(=O)Nc2cc(Cl)ccc2C)c1C` was run?
Its AC35 is 2.24 µM.

With `COc1cccc(C2=NOC(C(=O)NCc3ccccc3)C2)c1` (stereo not drawn) as the molecule, how does the AC35 read?
Its AC35 is 0.102 µM.

Which AC35 does the source give for `COc1ccc2c(c1)OC[C@H]1[C@H]2N2C(=O)c3ccc(C)cc3NC(=O)[C@@]2(C)[C@H]1c1ccccc1` here?
Its AC35 is 0.658 µM.

With `O=C1[C@H]2[C@@H](c3ccc(F)cc3)N3C(=O)N(c4cccc(Cl)c4)C(=O)[C@@]3(Cc3ccccc3)[C@H]2C(=O)N1C1CCCCC1` as the molecule, how does the AC35 read?
Its AC35 is 1.06 µM.

Which AC35 does the source give for `COc1cc(/C=N/NC(=O)c2ccc(-c3ccccc3)cc2)cc(OC)c1OC` here?
Its AC35 is 4.6 µM.

How did the AC35 turn out when `O=C(Nc1ccc2oc(-c3cccnc3)nc2c1)c1ccc([N+](=O)[O-])o1` was run?
Its AC35 is 1.46 µM.

How did the AC35 turn out when `COc1ccc(/C=N/NC(=O)c2cccc(NC(=O)c3ccccc3Cl)c2)cc1` was run?
The AC35 was 0.495 µM.

For `CC(C)n1cc(NC(=O)c2cc(-c3ccccc3)on2)cn1`, which AC35 is on record?
The AC35 was 0.568 µM.

`Cc1ccc(-c2cc(C(=O)N3CC(C)OC(C)C3)c3ccccc3n2)o1` (stereo not drawn) was tested. Which AC35 did it give?
Its AC35 is 2.91 µM.

How did the AC35 turn out when `COc1ccc(-n2c(=S)[nH]c3cc(C(=O)Nc4ccc(F)cc4)ccc3c2=O)c(OC)c1` was run?
Its AC35 is 1.47 µM.

`COC(=O)c1ccc(C(=O)NC2CC(C)(C)Cc3c2cnn3-c2ccc(F)cc2)nc1` (stereo not drawn) was tested. Which AC35 did it give?
The AC35 was 3.95 µM.

For `CCN1C(=O)c2cccc3c(S(=O)(=O)Nc4ccccn4)ccc1c23`, which AC35 is on record?
The AC35 was 1.86 µM.

For `COC(=O)c1c(C)[nH]c(C(=O)/C=C/c2cccc(Cl)c2)c1C`, which AC35 is on record?
The AC35 was 0.839 µM.

With `CC(C)(C)c1ccc(C(=O)NNC(=O)c2cccc(Br)c2)cc1` as the molecule, how does the AC35 read?
The AC35 was 5.04 µM.

Which AC35 does the source give for `COc1cc(-c2nccc3cc4c(cc23)OCO4)cc(OC)c1OC` here?
The AC35 was 0.0617 µM.

`O=C(/C=C/c1ccco1)Nc1nnc(-c2ccco2)s1` was tested. Which AC35 did it give?
Its AC35 is 0.204 µM.

How did the AC35 turn out when `Cn1cc(C(=O)N/N=C/C(Br)=C/c2ccccc2)ccc1=O` was run?
Its AC35 is 3.76 µM.

Which AC35 does the source give for `CCn1ncc(C2=NOC(C(=O)NCc3ccc(Cl)cc3)C2)c1C` (stereo not drawn) here?
Its AC35 is 14.7 µM.

With `Cc1nc(-c2ccccc2)sc1-c1nc(-c2ccncc2)ncc1S(=O)(=O)c1ccccc1` as the molecule, how does the AC35 read?
Its AC35 is 0.411 µM.

With `O=C(Nc1cccc(-c2cn3ccccc3n2)c1)c1cccc(Cl)c1` as the molecule, how does the AC35 read?
Its AC35 is 2.15 µM.

Which AC35 does the source give for `CCN(CC)c1ccc(C(=O)n2cnc3ccccc32)cc1` here?
The AC35 was 0.662 µM.

Which AC35 does the source give for `Cc1nnc2ccc(-c3ccc(NC(=O)c4ccco4)cc3)nn12` here?
The AC35 was 0.644 µM.

How did the AC35 turn out when `Cc1cc2nnc(SCC(=O)NCc3ccco3)n2c2ccccc12` was run?
The AC35 was 16.6 µM.

How did the AC35 turn out when `COc1ccc2c(c1)OC[C@H]1[C@H]2N2C(=O)c3cc(Br)ccc3NC(=O)[C@@]2(C)[C@H]1c1ccccc1` was run?
Its AC35 is 0.944 µM.

`CC(=O)Nc1ccc(/C=C/C(=O)c2ccc3c(c2)OCCO3)cc1` was tested. Which AC35 did it give?
Its AC35 is 2.88 µM.

With `COc1cccc(CNC(=O)COC(=O)c2ccc(-c3ccc(O)cc3)cc2)c1` as the molecule, how does the AC35 read?
Its AC35 is 3.65 µM.

For `COc1cc(C(=O)NC2CCN(C)CC2)ccc1Nc1ncc2c(n1)N(C1CCCCC1)CCC(=O)N2C`, which AC35 is on record?
Its AC35 is 0.0305 µM.

With `Nc1ccc(C(=O)Nc2ccccc2N)cc1` as the molecule, how does the AC35 read?
Its AC35 is 0.744 µM.

`COc1cc2c(cc1OC)C(c1ccccc1)N(C(=O)c1ccccc1F)CC2` (stereo not drawn) was tested. Which AC35 did it give?
Its AC35 is 0.608 µM.

With `Cc1ccc(C(=O)NCc2nnc(SCC(=O)NC(C)c3ccccc3)n2C)cc1` (stereo not drawn) as the molecule, how does the AC35 read?
Its AC35 is 2.43 µM.

`COc1cccc(C(=O)Nc2ccc3c(c2)C(=O)c2ccccc2C3=O)c1` was tested. Which AC35 did it give?
The AC35 was 0.121 µM.

`CCn1c(=O)c2cc(C(=O)NCCCOC)sc2c2ccccc21` was tested. Which AC35 did it give?
The AC35 was 0.177 µM.

How did the AC35 turn out when `Cc1cc(=O)n2c3c(c4c(cc13)c(CN(C)C)cc(=O)n4C)OC2` was run?
Its AC35 is 0.0315 µM.

`CS(=O)(=O)c1cccc(C(=O)Nc2ccc(-c3nc4ccccc4[nH]3)cc2)c1` was tested. Which AC35 did it give?
Its AC35 is 3.75 µM.

For `O=C(O)c1ccc(N/N=C/c2ccc(-c3ccc(Cl)cc3Cl)o2)cc1`, which AC35 is on record?
The AC35 was 1.47 µM.

`COc1ccc(OC)c(-c2cc(-c3cccnc3)nc(N)c2C#N)c1` was tested. Which AC35 did it give?
Its AC35 is 0.227 µM.

`Cc1ccc2nc(-c3ccc(SCC(=O)Nc4nnc(C)s4)nc3)[nH]c2c1` was tested. Which AC35 did it give?
The AC35 was 0.0224 µM.

Which AC35 does the source give for `COc1cc(OC)c(N2CC(C(=O)Nc3cc(Cl)ccc3N3CCOCC3)CC2=O)cc1Cl` (stereo not drawn) here?
The AC35 was 1.26 µM.
